Data from the supplement of paper PMC10307832.

Tests used:
Assay in all cases: relative viability (nuclei count vs DMSO), 5 days (fraction); higher = more cells survive
Tozasertib = compound: Cc1cc(Nc2cc(N3CCN(C)CC3)nc(Sc3ccc(NC(=O)C4CC4)cc3)n2)n[nH]1 [Tozasertib]
Procedure, shortened: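 Viability was read as treated-well nuclei divided by vehicle-well nuclei, using the median across plates. Lung cancer cell lines in 1536-well plates were kept overnight at 37 °C, pinned with five √10-spaced library-drug doses, and after 5 days were Hoechst-stained, imaged at 4× and counted in MetaXpress. Plates passed only with control CV below 25% and at least one doubling.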

Tozasertib + Foretinib = compound: Cc1cc(Nc2cc(N3CCN(C)CC3)nc(Sc3ccc(NC(=O)C4CC4)cc3)n2)n[nH]1 [Tozasertib] + COc1cc2c(Oc3ccc(NC(=O)C4(C(=O)Nc5ccc(F)cc5)CC4)cc3F)ccnc2cc1OCCCN1CCOCC1 [Foretinib] (partner 0.25 µM)
Procedure, shortened: (§1)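 Relative viability equals treated-well nuclei counts divided by vehicle-well nuclei counts. Counts came from 4× images of lung cancer cell lines grown in 1536-well plates for 5 days after pin-tool dosing on the day after seeding. Dosing used one drug alone or a fixed anchor-drug dose plus five library-drug doses (not always all listed) in √10 steps, and values are medians of duplicate plates.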

Tozasertib + Crizotinib = compound: Cc1cc(Nc2cc(N3CCN(C)CC3)nc(Sc3ccc(NC(=O)C4CC4)cc3)n2)n[nH]1 [Tozasertib] + C[C@@H](Oc1cc(-c2cnn(C3CCNCC3)c2)cnc1N)c1c(Cl)ccc(F)c1Cl [Crizotinib] (partner 1 µM)
Procedure, shortened: as §1

Tozasertib + Bortezomib = compound: Cc1cc(Nc2cc(N3CCN(C)CC3)nc(Sc3ccc(NC(=O)C4CC4)cc3)n2)n[nH]1 [Tozasertib] + CC(C)C[C@H](NC(=O)[C@H](Cc1ccccc1)NC(=O)c1cnccn1)B(O)O [Bortezomib] (partner 0.002 µM)
Procedure, shortened: as §1

Tozasertib + Navitoclax = compound: Cc1cc(Nc2cc(N3CCN(C)CC3)nc(Sc3ccc(NC(=O)C4CC4)cc3)n2)n[nH]1 [Tozasertib] + CC1(C)CCC(c2ccc(Cl)cc2)=C(CN2CCN(c3ccc(C(=O)NS(=O)(=O)c4ccc(N[C@H](CCN5CCOCC5)CSc5ccccc5)c(S(=O)(=O)C(F)(F)F)c4)cc3)CC2)C1 [Navitoclax] (partner 0.5 µM)
Procedure, shortened: as §1

Tozasertib + Linsitinib = compound: Cc1cc(Nc2cc(N3CCN(C)CC3)nc(Sc3ccc(NC(=O)C4CC4)cc3)n2)n[nH]1 [Tozasertib] + C[C@]1(O)C[C@@H](c2nc(-c3ccc4ccc(-c5ccccc5)nc4c3)c3c(N)nccn32)C1 [Linsitinib] (partner 1 µM)
Procedure, shortened: as §1

Tozasertib + Alpelisib = compound: Cc1cc(Nc2cc(N3CCN(C)CC3)nc(Sc3ccc(NC(=O)C4CC4)cc3)n2)n[nH]1 [Tozasertib] + Cc1nc(NC(=O)N2CCC[C@H]2C(N)=O)sc1-c1ccnc(C(C)(C)C(F)(F)F)c1 [Alpelisib] (partner 2 µM)
Procedure, shortened: as §1

Tozasertib + Vorinostat = compound: Cc1cc(Nc2cc(N3CCN(C)CC3)nc(Sc3ccc(NC(=O)C4CC4)cc3)n2)n[nH]1 [Tozasertib] + O=C(CCCCCCC(=O)Nc1ccccc1)NO [Vorinostat] (partner 1 µM)
Procedure, shortened: as §1

Tozasertib + Olaparib = compound: Cc1cc(Nc2cc(N3CCN(C)CC3)nc(Sc3ccc(NC(=O)C4CC4)cc3)n2)n[nH]1 [Tozasertib] + O=C(c1cc(Cc2n[nH]c(=O)c3ccccc23)ccc1F)N1CCN(C(=O)C2CC2)CC1 [Olaparib] (partner 8 µM)
Procedure, shortened: as §1

Tozasertib + Pictilisib = compound: Cc1cc(Nc2cc(N3CCN(C)CC3)nc(Sc3ccc(NC(=O)C4CC4)cc3)n2)n[nH]1 [Tozasertib] + CS(=O)(=O)N1CCN(Cc2cc3nc(-c4cccc5[nH]ncc45)nc(N4CCOCC4)c3s2)CC1 [Pictilisib] (partner 1 µM)
Procedure, shortened: as §1

Tozasertib + Lapatinib = compound: Cc1cc(Nc2cc(N3CCN(C)CC3)nc(Sc3ccc(NC(=O)C4CC4)cc3)n2)n[nH]1 [Tozasertib] + CS(=O)(=O)CCNCc1ccc(-c2ccc3ncnc(Nc4ccc(OCc5cccc(F)c5)c(Cl)c4)c3c2)o1 [Lapatinib] (partner 2 µM)
Procedure, shortened: as §1

Tozasertib + Pemetrexed = compound: Cc1cc(Nc2cc(N3CCN(C)CC3)nc(Sc3ccc(NC(=O)C4CC4)cc3)n2)n[nH]1 [Tozasertib] + Nc1nc2[nH]cc(CCc3ccc(C(=O)N[C@@H](CCC(=O)O)C(=O)O)cc3)c2c(=O)[nH]1 [Pemetrexed] (partner 0.2 µM)
Procedure, shortened: as §1

Tozasertib + AZD7762 = compound: Cc1cc(Nc2cc(N3CCN(C)CC3)nc(Sc3ccc(NC(=O)C4CC4)cc3)n2)n[nH]1 [Tozasertib] + NC(=O)Nc1cc(-c2cccc(F)c2)sc1C(=O)N[C@H]1CCCNC1 [AZD7762] (partner 0.2 µM)
Procedure, shortened: as §1

Tozasertib + Palbociclib = compound: Cc1cc(Nc2cc(N3CCN(C)CC3)nc(Sc3ccc(NC(=O)C4CC4)cc3)n2)n[nH]1 [Tozasertib] + CC(=O)c1c(C)c2cnc(Nc3ccc(N4CCNCC4)cn3)nc2n(C2CCCC2)c1=O [Palbociclib] (partner 0.5 µM)
Procedure, shortened: as §1

Tozasertib + OSI-027 = compound: Cc1cc(Nc2cc(N3CCN(C)CC3)nc(Sc3ccc(NC(=O)C4CC4)cc3)n2)n[nH]1 [Tozasertib] + COc1cccc2cc(-c3nc([C@H]4CC[C@H](C(=O)O)CC4)n4ncnc(N)c34)[nH]c12 [OSI-027] (partner 0.5 µM); conditions: first compound 0.1265 µM
Procedure, shortened: as §1

Tozasertib + Decitabine = compound: Cc1cc(Nc2cc(N3CCN(C)CC3)nc(Sc3ccc(NC(=O)C4CC4)cc3)n2)n[nH]1 [Tozasertib] + Nc1ncn([C@H]2C[C@H](O)[C@@H](CO)O2)c(=O)n1 [Decitabine] (partner 2 µM)
Procedure, shortened: as §1

Tozasertib + Trametinib = compound: Cc1cc(Nc2cc(N3CCN(C)CC3)nc(Sc3ccc(NC(=O)C4CC4)cc3)n2)n[nH]1 [Tozasertib] + CC(=O)Nc1cccc(-n2c(=O)n(C3CC3)c(=O)c3c(Nc4ccc(I)cc4F)n(C)c(=O)c(C)c32)c1 [Trametinib] (partner 0.02 µM)
Procedure, shortened: as §1

IA-LM
relative viability (Tozasertib; 0.004 µM): 1.06
relative viability (Tozasertib; 0.01265 µM): 0.819
relative viability (Tozasertib; 0.04 µM): 0.954
relative viability (Tozasertib; 0.1265 µM): 0.795
relative viability (Tozasertib + Foretinib; first compound 0.004 µM): 1.38
relative viability (Tozasertib + Foretinib; first compound 0.01265 µM): 1.18
relative viability (Tozasertib + Foretinib; first compound 0.04 µM): 1.11
relative viability (Tozasertib + Foretinib; first compound 0.1265 µM): 0.914
relative viability (Tozasertib + Crizotinib; first compound 0.004 µM): 0.784
relative viability (Tozasertib + Crizotinib; first compound 0.01265 µM): 1.05
relative viability (Tozasertib + Crizotinib; first compound 0.04 µM): 0.817
relative viability (Tozasertib + Crizotinib; first compound 0.1265 µM): 0.851
relative viability (Tozasertib + Bortezomib; first compound 0.004 µM): 0.794
relative viability (Tozasertib + Bortezomib; first compound 0.1265 µM): 0.849
relative viability (Tozasertib + Navitoclax; first compound 0.004 µM): 0.969
relative viability (Tozasertib + Navitoclax; first compound 0.01265 µM): 0.784
relative viability (Tozasertib + Navitoclax; first compound 0.04 µM): 0.767
relative viability (Tozasertib + Navitoclax; first compound 0.1265 µM): 0.797
relative viability (Tozasertib + Linsitinib; first compound 0.004 µM): 0.697
relative viability (Tozasertib + Linsitinib; first compound 0.01265 µM): 0.564
relative viability (Tozasertib + Linsitinib; first compound 0.04 µM): 0.533
relative viability (Tozasertib + Linsitinib; first compound 0.1265 µM): 0.307
relative viability (Tozasertib + Alpelisib; first compound 0.004 µM): 0.715
relative viability (Tozasertib + Alpelisib; first compound 0.01265 µM): 0.753
relative viability (Tozasertib + Alpelisib; first compound 0.04 µM): 0.871
relative viability (Tozasertib + Alpelisib; first compound 0.1265 µM): 0.457
relative viability (Tozasertib + Vorinostat; first compound 0.04 µM): 0.855
relative viability (Tozasertib + Vorinostat; first compound 0.1265 µM): 0.854
relative viability (Tozasertib + Olaparib; first compound 0.004 µM): 0.976
relative viability (Tozasertib + Olaparib; first compound 0.01265 µM): 0.909
relative viability (Tozasertib + Olaparib; first compound 0.04 µM): 0.779
relative viability (Tozasertib + Olaparib; first compound 0.1265 µM): 0.814
relative viability (Tozasertib + Pictilisib; first compound 0.004 µM): 0.336
relative viability (Tozasertib + Pictilisib; first compound 0.01265 µM): 0.302
relative viability (Tozasertib + Pictilisib; first compound 0.04 µM): 0.457
relative viability (Tozasertib + Pictilisib; first compound 0.1265 µM): 0.265
relative viability (Tozasertib + Lapatinib; first compound 0.004 µM): 0.967
relative viability (Tozasertib + Lapatinib; first compound 0.01265 µM): 0.838
relative viability (Tozasertib + Lapatinib; first compound 0.04 µM): 1.13
relative viability (Tozasertib + Lapatinib; first compound 0.1265 µM): 0.479

NCI-H1648
relative viability (Tozasertib; 0.01265 µM): 0.779
relative viability (Tozasertib; 0.04 µM): 0.743
relative viability (Tozasertib; 0.1 µM, anchor plate): 0.497
relative viability (Tozasertib; 0.1265 µM): 0.79
relative viability (Tozasertib + Pemetrexed; first compound 0.004 µM): 0.891
relative viability (Tozasertib + Pemetrexed; first compound 0.01265 µM): 0.665
relative viability (Tozasertib + Pemetrexed; first compound 0.04 µM): 0.773
relative viability (Tozasertib + Pemetrexed; first compound 0.1265 µM): 0.615
relative viability (Tozasertib + AZD7762; first compound 0.004 µM): 0.717
relative viability (Tozasertib + AZD7762; first compound 0.01265 µM): 0.619
relative viability (Tozasertib + AZD7762; first compound 0.04 µM): 0.596
relative viability (Tozasertib + AZD7762; first compound 0.1265 µM): 0.393
relative viability (Tozasertib + Palbociclib; first compound 0.004 µM): 0.279
relative viability (Tozasertib + Palbociclib; first compound 0.01265 µM): 0.304
relative viability (Tozasertib + Palbociclib; first compound 0.04 µM): 0.276
relative viability (Tozasertib + Palbociclib; first compound 0.1265 µM): 0.255
relative viability (Tozasertib + OSI-027): 0.237
relative viability (Tozasertib + Decitabine; first compound 0.004 µM): 0.461
relative viability (Tozasertib + Decitabine; first compound 0.01265 µM): 0.461
relative viability (Tozasertib + Decitabine; first compound 0.04 µM): 0.383
relative viability (Tozasertib + Decitabine; first compound 0.1265 µM): 0.401
relative viability (Tozasertib + Vorinostat; first compound 0.004 µM): 0.42
relative viability (Tozasertib + Vorinostat; first compound 0.01265 µM): 0.296
relative viability (Tozasertib + Vorinostat; first compound 0.04 µM): 0.425
relative viability (Tozasertib + Vorinostat; first compound 0.1265 µM): 0.379
relative viability (Tozasertib + Olaparib; first compound 0.004 µM): 1.64
relative viability (Tozasertib + Olaparib; first compound 0.01265 µM): 0.767
relative viability (Tozasertib + Olaparib; first compound 0.04 µM): 0.844
relative viability (Tozasertib + Olaparib; first compound 0.1265 µM): 0.531
relative viability (Tozasertib + Trametinib; first compound 0.004 µM): 0.488
relative viability (Tozasertib + Trametinib; first compound 0.01265 µM): 0.444
relative viability (Tozasertib + Trametinib; first compound 0.04 µM): 0.425
relative viability (Tozasertib + Trametinib; first compound 0.1265 µM): 0.41
